Laboratory results published in patent US11332503B2, “Peptides for treatment and prevention of hyperglycaemia” (UNIVERSITE DE STRASBOURG, priority 2017, dated 2022).

Tests used:
human primary adipocytes = assay: In vitro 2-deoxy-D-glucose-6-phosphate (DG6P) uptake in human primary adipocytes; type: cell-based
Method: Human white visceral preadipocytes (Catalog #: C-12732; PromoCell) were purchased. The preadipocytes were seeded according to manufacturer's protocol and cultured in the Preadipocyte growth medium (Catalog #: C-27410; PromoCell) to confluence. Once confluence was reached, adipogenic differentiation was triggered through medium change to get mature human adipocytes. For the culture without insulin, Adipocyte Basal Medium (Catalog #: C-2431; PromoCell) without insulin was complemented with 5 g/L of […], 8 μg/mL d-Biotin, 400 ng/mL Dexamethasone (following manufacturer's procedure). Native peptides and their stapled counterparts as well as the scrambled peptides (corresponding to the same set of amino acids but rearranged randomly) were purchased from Eurogentec. Each peptide was diluted in saline and used at a dose of 2.5 ng per 10 cm square of cell culture surface area for in vitro studies or 2.5 ng of each peptide (A and B) was injected per mouse.
Mature adipocytes were cultured in 96 well plate. The adipocytes received the different peptides at the indicated concentration above. 24 hours later, the glucose absorption capacity if the treated cells were assessed using the Glucose Uptake Colorimetric Assay kit from Bio Vision (Catalog #: K676-100).
In vivo assessment of the effect of stapled peptides A and B injection in the adipose tissue of diet-induced diabetic WT mice. Mice were fed with a defined high fat/high glucose diet until they became intolerant to glucose (FIG. 5A, Prior Injection). Once the mice were glucose intolerant, these mice received an injection with a combination of the stapled peptides A and B directly in the subcutaneous fat and GTT was again performed a week later as depicted in FIG. 5B. […] FIG. 5C depicts pictures of the adipose tissue which received a combination of the stapled peptides A and B labelled with FAM (green dots indicated with the white arrows). […] A variety of modified stapled peptides were designed to test the effect of modifying the peptide sequence on insulin-independent glucose uptake into adipocytes. Peptides were obtained from CPC Scientific. Additional in vitro 2-deoxy-D-glucose-6-phosphate (DG6P) uptake results in human primary adipocytes for individual peptides of the present technology are provided in Tables 1-3.

human adipocytes = assay: Glucose entry in human adipocytes after native or stapled peptide treatment (FIG. 4D-E); type: cell-based; conditions: native peptide, absence of insulin
Excerpt: FIG. 4: In vitro characterization of two peptides for their glucose absorption triggering capacity. • (A) Representative picture depicting the cellular entry assessment of the mixture of FAM-labelled stapled peptides A (SEQ ID No 9) and B (SEQ ID No 11) in human adipocytes. DIC: Differential interference contrast mode for living cell acquisition in left panel. In right panel, fluorescent detection of the FAM-labelled peptide with the labelled plasma membrane (PM). • (B) 3D images of the cellular uptake of PATAD peptides identified in FIG. 3; either peptide A (left panel) or peptide B (right panel) treated adipocyte showing the spots inside the peptide inside the adipocyte. • (C) Photographs showing absorption of 2-NBDG in absence of INS in adipocytes following treatment with a combination of the stapled peptides A and B. • (D) Quantification of intracellular glucose analogue 2-NB in absence of INS in adipocytes following the indicated peptide treatment (n=8 per group). • (E) Quantification of intracellular glucose analogue 2-NB in presence of INS in adipocytes following the indicated peptide treatment (n=8 per group). […]
Mature adipocytes were cultured in 96 well plate. […] 24 hours later, the glucose absorption capacity if the treated cells were assessed using the Glucose Uptake Colorimetric Assay kit from Bio Vision (Catalog #: K676-100). […]

[1] = Table 2 dose response, 0.001 μM

Substance	2-DG6P (human primary adipocytes; Table 1, peptides at 50 μM) [pmol]	2-DG6P compared to -Insulin (%) (human primary adipocytes; Table 1, peptides at 50 μM)	2-DG6P (human primary adipocytes; [1]) [pmol]	2-DG6P compared to -Insulin (%) (human primary adipocytes; [1])	2-DG6P (human primary adipocytes; Table 2 dose response, 0.01 μM) [pmol]	2-DG6P compared to -Insulin (%) (human primary adipocytes; Table 2 dose response, 0.01 μM)	2-DG6P (human primary adipocytes; Table 2 dose response, 0.1 μM) [pmol]	2-DG6P compared to -Insulin (%) (human primary adipocytes; Table 2 dose response, 0.1 μM)	2-DG6P (human primary adipocytes; Table 2 dose response, 1 μM) [pmol]	2-DG6P compared to -Insulin (%) (human primary adipocytes; Table 2 dose response, 1 μM)	2-DG6P (human primary adipocytes; Table 2 dose response, 10 μM) [pmol]	2-DG6P compared to -Insulin (%) (human primary adipocytes; Table 2 dose response, 10 μM)	2-DG6P (human primary adipocytes; Table 2 dose response, 100 μM) [pmol]	2-DG6P compared to -Insulin (%) (human primary adipocytes; Table 2 dose response, 100 μM)	entry of glucose into the adipocyte (human adipocytes)
H-VECTM-R8-EKRVLA-S5-LDKPPFLTQLHS-OH [AT001]	44.2	146.8	19.9	91.2	21.3	97.5	22.3	102.0	23.9	109.6	31.7	145.2	47.2	216.1	
H-VECTM-R8-EKRVLA-S5-LDKPPFLTQLHS-OH [AT007]	57.7	191.5					23.2	106.5	24.0	110.1	36.0	165.0	55.5	254.3	
H-VECTM-R8-EKRVLA-S5-LDKPPFLTQLHS-OH [AT021]	37.5	124.6													
H-VECTM-S5-EKR-S5-LALLDKPPFLTQLHS-OH [AT008]	53.3	177.0													
SICKGLMTKHPAKRLGCGPEG (native or hydrocarbon-stapled; listed as Homo sapiens) [peptide B, PATAD peptide from human αPKC, tested native and stapled]															significant entry of glucose
